{"source": "patent US20100179059A1", "about": "“Fungicidal Mixtures” (BASF SE, priority 2007, published 2010)", "format_in_all_cases": "cell-based", "key": {"[1]": {"tested_on": "Botrytis cinerea", "assay": "Activity against the grey mold Botrytis cinerea in the microtiterplate test"}, "[2]": {"tested_on": "Pyricularia oryzae", "settings": "active compound alone, 7 days after inoculation"}, "[3]": {"tested_on": "Septoria tritici", "assay": "Activity against leaf blotch on wheat caused by Septoria tritici (microtiter plate)", "settings": "active compound alone, 7 days after inoculation"}, "[4]": {"settings": "Botrytis cinerea, 168 h, active compound alone, 0.063 ppm, 7 days after inoculation, read-out: Observed efficacy"}, "[5]": {"settings": "Botrytis cinerea, 168 h, active compound alone, 7 days after inoculation, read-out: Observed efficacy"}}, "note": "Where two headings read alike, the source gives them in different places."}
{"molecule": "COC(=O)Nc1nc2ccccc2[nH]1", "note": "[Carbendazim, methyl (1H-benzoimidazol-2-yl)-carbamate, reference compound]", "values": [{"measurement": "inhibition of growth at 0.063 ppm", "setting": "[1]; [4]", "value": 74, "unit": "%"}, {"measurement": "Observed efficacy", "setting": "[2]; 0.25 ppm", "value": 30, "unit": "%"}]}
{"molecule": "zinc propylenebis(dithiocarbamate) polymer [Propineb, reference compound]", "values": [{"measurement": "Observed efficacy", "setting": "[1]; active compound alone, 4 ppm, 7 days after inoculation", "value": 32, "unit": "%"}]}
{"molecule": "CC(C)OC(=O)N[C@H](C(=O)N[C@H](C)c1nc2ccc(F)cc2s1)C(C)C", "note": "[Benthivalicarb, isopropyl {(S)-1-[(1R)-1-(6-fluorobenzothiazol-2-yl)ethylcarbamoyl]-2-methylpropyl}carbamate, reference compound]", "values": [{"measurement": "inhibition of growth at 0.063 ppm", "setting": "[1]; Botrytis cinerea, 168 h, read-out: Observed efficacy", "value": 0, "unit": "%"}]}
{"molecule": "Fc1ccc([C@]2(Cn3cncn3)O[C@H]2c2ccccc2Cl)cc1", "note": "(racemic) [Epoxiconazol, (2RS,3SR)-1-[3-(2-chlorophenyl)-2,3-epoxy-2-(4-fluorophenyl)propyl]-1H-1,2,4-triazole, reference compound]", "values": [{"measurement": "inhibition of growth at 0.25 ppm", "setting": "[1]; Botrytis cinerea, 168 h, active compound alone, 0.25 ppm, 7 days after inoculation, read-out: Observed efficacy", "value": 37, "unit": "%"}, {"measurement": "Observed efficacy", "setting": "[3]; 0.063 ppm", "value": 66, "unit": "%"}]}
{"molecule": "COC(=O)N(OC)c1ccccc1COc1ccn(-c2ccc(Cl)cc2)n1", "note": "[Pyraclostrobin, reference compound]", "values": [{"measurement": "Observed efficacy", "setting": "[2]; 0.016 ppm", "value": 67, "unit": "%"}]}
{"molecule": "OC(c1cccnc1)c1c(-c2ccc(Cl)cc2F)noc1-c1ccccc1F", "note": "(centres unmarked) [Cmpd No. 144, 3-(4-Chloro-2-fluorophenyl)-4-[(3-pyridyl)-hydroxymethyl]-5-(2-fluorophenyl)-isoxazole]", "values": [{"measurement": "inhibition of growth at 0.00025 ppm", "setting": "[1]; [5]", "value": 4, "unit": "%"}, {"measurement": "inhibition of growth at 0.001 ppm", "setting": "[1]; [5]", "value": 2, "unit": "%"}, {"measurement": "Observed efficacy", "setting": "[3]; 0.016 ppm", "value": 16, "unit": "%"}]}
{"molecule": "CC(C)(C)c1onc(-c2ccc(Cl)cc2Cl)c1C(O)c1cccnc1", "note": "(centres unmarked) [Cmpd No. 7, 3-(2,4-Dichlorophenyl)-5-(1,1-dimethylethyl)-4-[(3-pyridyl)hydroxymethyl]-isoxazole]", "values": [{"measurement": "Observed efficacy", "setting": "[2]; 0.001 ppm", "value": 2, "unit": "%"}]}
{"molecule": "OC(c1cccnc1)c1c(-c2ccc(F)cc2F)noc1-c1ccc(Cl)cc1F", "note": "(centres unmarked) [Cmpd No. 145, 3-(2,4-Difluorophenyl)-4-[(3-pyridyl)-hydroxymethyl]-5-(4-chloro-2-fluorophenyl)-isoxazole]", "values": [{"measurement": "inhibition of growth at 0.001 ppm", "setting": "[1]; [5]", "value": 20, "unit": "%"}, {"measurement": "Observed efficacy", "setting": "[2]; 0.000063 ppm", "value": 10, "unit": "%"}]}
{"molecule": "manganese ethylenebis(dithiocarbanate) zinc complex [Mancozeb]", "values": [{"measurement": "Observed efficacy", "setting": "[3]; 4 ppm", "value": 52, "unit": "%"}]}
{"molecule": "OC(c1cccnc1)c1c(-c2ccc(Cl)cc2Cl)noc1-c1cccc(Cl)c1", "note": "(centres unmarked) [Cmpd No. 4, 5-(3-Chlorophenyl)-3-(2,4-dichlorophenyl)-4-[(3-pyridyl)hydroxymethyl]-isoxazole]", "values": [{"measurement": "inhibition of growth at 0.001 ppm", "setting": "[1]; [5]", "value": 2, "unit": "%"}]}
{"molecule": "Cc1cc(C)nc(Nc2ccccc2)n1", "note": "[Pyrimethanil, 4,6-dimethylpyrimidin-2-ylphenylamine, reference compound]", "values": [{"measurement": "inhibition of growth at 0.063 ppm", "setting": "[1]; [4]", "value": 5, "unit": "%"}, {"measurement": "Observed efficacy", "setting": "[3]; 16 ppm", "value": 38, "unit": "%"}]}
{"molecule": "OC(Cc1ccccc1Cl)(Cn1nc[nH]c1=S)C1(Cl)CC1", "note": "(centres unmarked) [Prothioconazol, 2-[2-(1-chlorocyclopropyl)-3-(2-chlorophenyl)-2-hydroxypropyl]-2,4-dihydro-[1,2,4]triazole-3-thione, reference compound]", "values": [{"measurement": "inhibition of growth at 1 ppm", "setting": "[1]; Botrytis cinerea, 168 h, active compound alone, 1 ppm, 7 days after inoculation, read-out: Observed efficacy", "value": 46, "unit": "%"}]}
{"molecule": "OC(c1cccnc1)c1c(-c2cc(F)cc(F)c2)noc1-c1ccc(Cl)cc1", "note": "(centres unmarked) [Cmpd No. 124, 5-(4-Chlorophenyl)-3-(3,5-difluorophenyl)-4-[(3-pyridyl)-hydroxymethyl]-isoxazole]", "values": [{"measurement": "inhibition of growth at 0.001 ppm", "setting": "[1]; [5]", "value": 1, "unit": "%"}]}
{"molecule": "OC(c1cccnc1)c1c(-c2ccc(F)cc2)noc1-c1ccccc1Cl", "note": "(centres unmarked) [Cmpd No. 90, 5-(2-Chlorophenyl)-3-(4-fluorophenyl)-4-[(3-pyridyl)-hydroxymethyl]-isoxazole]", "values": [{"measurement": "inhibition of growth at 4e-06 ppm", "setting": "[1]; Botrytis cinerea, 168 h, active compound alone, 0.000004 ppm, 7 days after inoculation, read-out: Observed efficacy", "value": 5, "unit": "%"}, {"measurement": "inhibition of growth at 1.6e-05 ppm", "setting": "[1]; Botrytis cinerea, 168 h, active compound alone, 0.000016 ppm, 7 days after inoculation, read-out: Observed efficacy", "value": 5, "unit": "%"}, {"measurement": "inhibition of growth at 6.3e-05 ppm", "setting": "[1]; Botrytis cinerea, 168 h, active compound alone, 0.000063 ppm, 7 days after inoculation, read-out: Observed efficacy", "value": 1, "unit": "%"}, {"measurement": "inhibition of growth at 0.00025 ppm", "setting": "[1]; [5]", "value": 1, "unit": "%"}, {"measurement": "Observed efficacy", "setting": "[2]; 0.000063 ppm", "value": 6, "unit": "%"}, {"measurement": "Observed efficacy", "setting": "[3]; 0.00025 ppm", "value": 9, "unit": "%"}]}
{"molecule": "OC(c1cccnc1)c1c(-c2ccc(Cl)cc2)noc1-c1ccc(F)cc1", "note": "(centres unmarked) [Cmpd No. 88, 3-(4-Chlorophenyl)-5-(4-fluorophenyl)-4-[(3-pyridyl)-hydroxymethyl]-isoxazole]", "values": [{"measurement": "Observed efficacy", "setting": "[2]; 1 ppm", "value": 3, "unit": "%"}]}
